From patent US5773431A (priority 1997, dated 1998)
Counter-ions that a name gives are not always drawn.

Key:
[1] = tested on: sterol 27-hydroxylase (BAE cells); test: Sterol 27-hydroxylase activity in BAE cells (metabolites in medium by GLC-MS); assay type: cell-based, bovine; details: for Proportion of C27 bile acid of total metabolite: cholesterol-supplemented medium; for Synthesis by BAE cells: amount in medium: delipidated FBS + 20 nmol/ml cholesterol
Description: (§1) Bovine aortic endothelial (BAE) cells obtained from a slaughterhouse were plated at low density (2×10^5 cells/cm^2) in 100-mm dishes and were grown to confluence in Dulbecco's modified Eagle medium (DMEM) supplemented with 10% fetal bovine serum (FBS), 50 units/ml penicillin, and 50 units/ml streptomycin at 37° C. in a 5% CO2 atmosphere. The confluent monolayer was rinsed once with Hank's balanced salt solution, and 4 ml of DMEM containing 10% […] FBS and either 20 μM cholesterol dissolved in 2-hydroxypropyl-β-cyclodextrin or an equivalent amount of vehicle alone was added to each dish. Hep G2 cells and Chinese hamster ovary cells (CHO) were cultured under identical conditions and for the same length of time. At 24-h intervals, the media and cells were harvested. The medium obtained from each dish was analyzed for metabolites. Cells were pooled for immunoblot analysis.
(§2) Following acidification and extraction into ethyl acetate, the dried residue was saponified. In some studies, solvolysis was also done prior to extraction.
(§3) Using a Hewlett-Packard GLC-MS (Model #5890-5970) and a fused silica column (CP-sil 19 CB, 0.25 mm i.d., 25 m length; Chrompack, Raritan, N.J.), the appropriate TLC fractions were injected in the splitless mode with temperature programming from 260° C. to 270° C. at 1.0° C./min and a column head pressure of 5 psi.
(§4) For the C27 acid, the ion pair that was used was m/z […] [methyl ester acetate mol ion=476-60 (acetate)] and m/z 416, and for the C24 acid, m/z 370 [mol ion methyl ester acetate=430-60 (acetate)] and m/z 373.

[2] = tested on: sterol 27-hydroxylase (Hep G2 cells); test: Sterol 27-hydroxylase activity in Hep G2 cells (metabolites in medium by GLC-MS); assay type: cell-based; details: HEP G2 (n = 6), 72 h, 20 μM cholesterol; for Metabolites Derived from Sterol 27-Hydroxylase: 3βOH-5-cholen. a.: mean value of 2 dishes after solvolysis
Description: as §1, §2, §3, §4

[3] = tested on: sterol 27-hydroxylase (CHO cells); test: Sterol 27-hydroxylase activity in CHO cells (metabolites in medium by GLC-MS); assay type: cell-based, Chinese hamster
Description: as §1, §2, §3, §4

[4] = tested on: rabbit smooth muscle cells; test: Rabbit smooth muscle cell proliferation (formazan formation from MTS); assay type: cell-based; details: 24 hr; for Optical density of wells (cell proliferation, MTS formazan): 20 μm, 5% delipidated FBS, control wells 0.402±0.037
Description: Cell proliferation at 24 hr was measured using formazan formation from MTS which is known to correlate with the number of cells present in each well.

[5] = tested on: cholesterol synthesis and accumulation; details: cited from earlier work
[6] = tested on: intimal thickening of abdominal aorta; test: Vascular injury model: balloon-injured rabbit aorta, intimal thickening by intimal/medial (I/M) ratio; assay type: in vivo, New Zealand white rabbits
Description: New Zealand white rabbits weighing 2.6 to 5.1 kgs were anesthetized with intramuscular ketamine 35 mg/kg. Additional injections of ketamine (100 mg/cc) and xylazine (20 mg/cc) in a 50/50 mixture were given as necessary in 1 ml increments. Keflin (Eli Lilly & Co.), 30/mg/kg was given intravenously (IV). A longitudinal incision was made on the medial aspect of the distal hind limb to expose the greater saphenous artery. Arteriotomy was performed, and a 3-F Fogarty embolectomy catheter (Edwards Laboratories, Santa Ana, Calif.) was introduced and advanced to the level of the diaphragmatic abdominal aorta. The catheter was withdrawn from the abdominal aorta with the balloon inflated to a pressure of about 20 mm hg. This maneuver was repeated for a total of three passes. The catheter was removed, and the saphenous artery was ligated. […]
The abdominal aortas were fixed by perfusion with glutaraldehyde at physiological pressure via a catheter (14G Intracath) placed in the left ventricle. […] The entire intimal and medial areas in more than 2 sections per specimen were measured using Lucida computer calculation (Micro Brightfield, Inc.). The degree of intimal thickening was determined by calculating the intimal to medial area (I/M) ratio. Statistical significance of the difference in intimal/medial ratio between groups was calculated using student t-test. […]

[7] = tested on: smooth muscle cells derived from rat aorta; test: Proliferation of smooth muscle cells derived from rat aorta; assay type: cell-based, rat (male Sprague-Dawley); details: 72 hr
Description: (§5) Smooth muscle cells were cultured according to Ross (J. Cell. Biol., 50:172, 1971) from the intima-medial layer of male Sprague-Dawley rats (200-250 g). Cells were grown in monolayers at 37° C. in a humidified atmosphere of 5% CO2 in MEM supplemented with 10% FBS, 100 U/ml penicillin, 0.1 mg/ml streptomycin, […] tricine buffer and 1% non-essential amino acid solution (Corsini et al, Atherosclerosis, 101:117, 1993). The medium was changed every third day. Cells were used between the 4th and 10th passage. Cell viability was assessed by trypan blue exclusion. Smooth muscle cells were identified for growth behavior, morphology, and using monoclonal antibody specific for α-actin, using the isoform typical for smooth muscle cells. Human vascular myocytes were taken from a human femoral artery and grown under the same culture conditions.
(§6) Smooth muscle cells derived from rat aorta were seeded at a density of 2×10^5 and those from the femoral artery at a density of 5×10^4. […] Cell proliferation was determined at 72 hr either by trypsinization of the monolayer and counting in a model ZM Coulter Counter or by incorporation of tritiated thymidine after a 3 hr incubation.

[8] = tested on: smooth muscle cells derived from human femoral artery; test: Proliferation of smooth muscle cells derived from human femoral artery; assay type: cell-based; details: Human Femoral A, 72 hr, read-out: Percent of Control Growth
Description: as §5, §6

[9] = tested on: L1210 cells; test: Cell proliferation of tumor cell line L1210; assay type: cell-based; details: read-out: Concentration of 27-Hydroxycholesterol Yielding 50% Growth Inhibition; L1210 cells (mouse leukemia cell line)
From the text: (§7) Conventional methods of cell culture were utilized in this experiment.

[10] = tested on: K-12 cells; test: Cell proliferation of tumor cell line K-12; assay type: cell-based; details: K12, read-out: Concentration of 27-Hydroxycholesterol Yielding 50% Growth Inhibition; K-12 cells (adenocarcinoma line)
From the text: as §7

[11] = tested on: HCT-8; test: Cell proliferation of tumor cell line HCT-8; assay type: cell-based; details: read-out: Concentration of 27-Hydroxycholesterol Yielding 50% Growth Inhibition; HCT-8 (human colon carcinoma)
From the text: as §7

[12] = Nonfasted rabbits, treated
[13] = in hydroxypropyl-beta-cyclodextrin vehicle
[14] = tested on: hamster aortic smooth muscle cells; details: six days, at the tested concentration; cited from earlier work
[15] = tested on: restenosis; details: high doses, cited from earlier work
[16] = tested on: intimal proliferation; details: cited from earlier work
[17] = tested on: HCT-8 cells; test: In vitro cytotoxicity test of uridyl derivative with HCT-8 cells (FIG. 1); assay type: cell-based, human
From the text: The results of the experimentation is illustrated in FIG. 1.

[18] = BAE (n = 6), 72 h, 20 μM cholesterol
[19] = CHO (n = 3), 72 h, 20 μM cholesterol

Question: Which “Metabolites Derived from Sterol 27-Hydroxylase” value [1, 18] does the source give for `C[C@H](CCC(=O)O)[C@H]1CC[C@H]2[C@@H]3CC=C4C[C@@H](O)CC[C@]4(C)[C@H]3CC[C@]12C` [3β-hydroxy-5-cholenoic acid] here?
Answer: not detected

Question: What about the “Metabolites Derived from Sterol 27-Hydroxylase” value [2] of the same compound?
Answer: 1940 ± 270 pmol/mg/cell protein

Question: And the “Metabolites Derived from Sterol 27-Hydroxylase” value [3, 19]?
Answer: not detected

Question: And the “Amount in the medium from CHO cells” value ([3]; compared with Hep G2 or BAE cells)?
Answer: small amount

Question: For `CC(CCC[C@@H](C)[C@H]1CC[C@H]2[C@@H]3CC=C4C[C@@H](O)CC[C@]4(C)[C@H]3CC[C@]12C)C(=O)O` (stereo partly drawn) [3β-hydroxy-5-cholestenoic acid], which “Metabolites Derived from Sterol 27-Hydroxylase” value [1, 18] is on record?
Answer: 474 ± 118 pmol/mg/cell protein

Question: What about the “Proportion of C27 bile acid of total metabolite” value ([1]; BAE cells, 24 h) of the same compound?
Answer: 3.8%

Question: What about the “Proportion of C27 bile acid of total metabolite” value ([1]; BAE cells, 72 h) of the same compound?
Answer: 17%

Question: What about the “Synthesis by BAE cells: amount in medium” value ([1]; 24 h) of the same compound?
Answer: 42.5 ± 6.1 pmol/ml medium

Question: And the “Synthesis by BAE cells: amount in medium” value ([1]; 48 h)?
Answer: 112 ± 12.4 pmol/ml medium

Question: And the “Synthesis by BAE cells: amount in medium” value ([1]; 72 h)?
Answer: 211 ± 48.3 pmol/ml medium

Question: And the “Metabolites Derived from Sterol 27-Hydroxylase” value [2]?
Answer: 471 ± 126 pmol/mg/cell protein

Question: And the “Metabolites Derived from Sterol 27-Hydroxylase” value [3, 19]?
Answer: 2 ± 1 pmol/mg/cell protein

Question: And the “Optical density of wells (cell proliferation, MTS formazan)” value [4]?
Answer: 0.357±0.22

Question: Which “Potency as inhibitor of cholesterol synthesis and accumulation relative to 27-hydroxycholesterol” value [5] does the source give for `CC(CN)CCC[C@@H](C)[C@H]1CC[C@H]2[C@@H]3CC=C4C[C@@H](O)CC[C@]4(C)[C@H]3CC[C@]12C` (stereo partly drawn) [27-aminocholesterol] here?
Answer: more potent

Question: What does the source list for `C[C@@H](CO)CCC[C@@H](C)[C@H]1CC[C@H]2[C@@H]3CC=C4C[C@@H](O)CC[C@]4(C)[C@H]3CC[C@]12C` [27-hydroxycholesterol, cholest-5-ene-3β, 27-diol]?
Answer: Reduction of the degree of intimal thickening as compared with the control group ([6]; Run II, 14 days): 1/2; Metabolites Derived from Sterol 27-Hydroxylase [1, 18]: 2555 ± 348 pmol/mg/cell protein; Synthesis by BAE cells: amount in medium ([1]; 24 h): 1089 ± 111 pmol/ml medium; Synthesis by BAE cells: amount in medium ([1]; 48 h): 1064 ± 161 pmol/ml medium; Synthesis by BAE cells: amount in medium ([1]; 72 h): 1029 ± 99 pmol/ml medium; Metabolites Derived from Sterol 27-Hydroxylase [2]: 1622 ± 291 pmol/mg/cell protein; Amount present in medium from CHO cells (below the limit of detection) ([3]; 72 h, cholesterol-supplemented medium): < 10 ng per assay; Metabolites Derived from Sterol 27-Hydroxylase [3, 19]: not detected; Optical density of wells (cell proliferation, MTS formazan) [4]: 0.350±0.021; Reduction of optical density compared to control wells ([4]; p<0.01): significant reduction; activity at 1 µM ([7]; 1.0 μM, read-out: Percent of Control Growth): 90%; activity at 5 µM ([7]; 5.0 μM, p < 0.01, read-out: Percent of Control Growth): 40%; activity at 7.5 µM ([7]; 7.5 μM, read-out: Percent of Control Growth): 18%; activity at 1 µM ([8]; 1.0 μM): 100%; activity at 5 µM ([8]; 5.0 μM, p < 0.01): 53%; IC50 [9]: 1.2 µM; IC50 [10]: 3.7 µM; IC50 [11]: 11.5 µM; Distribution of Plasma 27-Hydroxycholesterol, LDL [12]: 55%; Viscosity of preparation [13]: very viscous; Inhibition of proliferation [14]: about 50%

Question: Which Restenosis ([15]; six months following percutaneous transluminal coronary angioplasty) does the source give for `CC[C@H](C)C(=O)O[C@H]1C[C@@H](C)C=C2C=C[C@H](C)[C@H](CC[C@@H]3C[C@@H](O)CC(=O)O3)[C@H]21` [Lovastatin] here?
Answer: did not decrease restenosis

Question: What about the LDL-cholesterol level [15] of the same compound?
Answer: markedly decrease

Question: For `Cc1ccc(C(=O)Nc2ccc(S(=O)(=O)O)c3cc(S(=O)(=O)O)cc(S(=O)(=O)O)c23)cc1NC(=O)c1cccc(NC(=O)Nc2cccc(C(=O)Nc3cc(C(=O)Nc4ccc(S(=O)(=O)O)c5cc(S(=O)(=O)O)cc(S(=O)(=O)O)c45)ccc3C)c2)c1` [Suramin, suramin, reference compound], which “Mean Intima/Media Ratio” value ([6]; Run I, 14-day, test group of 5 rabbits, suramin p < 0.05, 27-hydroxycholesterol 10 mg i.v. day before surgery, 5 mg day of surgery, 5 mg twice a day days 1 to 14, in 45% HPBCD) is on record?
Answer: 0.4089 ± 0.034

Question: And the “Inhibition of intimal proliferation” value [16]?
Answer: shown to inhibit intimal proliferation

Question: Which results are given for `CC(C)CCC[C@@H](C)[C@H]1CC[C@H]2[C@@H]3CC=C4C[C@@H](O)CC[C@]4(C)[C@H]3CC[C@]12C` [cholesterol]?
Answer: Metabolites Derived from Sterol 27-Hydroxylase, Total [1, 18]: 3029 pmol/mg/cell protein; Metabolites as percent of the cholesterol added to the medium ([1]; BAE cells, 20 nmol/ml cholesterol, 72 h): approximately 5.8%; Metabolites Derived from Sterol 27-Hydroxylase, Total [2]: 4033 pmol/mg/cell protein; Metabolites Derived from Sterol 27-Hydroxylase, Total [3, 19]: 2 pmol/mg/cell protein

Question: What does the source list for `C[C@@H](CO)CCC[C@@H](C)[C@H]1CC[C@H]2[C@@H]3CC=C4C[C@@H](OP(=O)(O)OC[C@H]5O[C@@H](n6ccc(=O)[nH]c6=O)[C@H](O)[C@@H]5O)CC[C@]4(C)[C@H]3CC[C@]12C` [uridine derivative, sodium salt of 3-[(25R)-26-hydroxycholesteryl]5'-uridyl monophosphate]?
Answer: Inhibition of cell viability: death of HCT-8 cells ([17]; 500 μM): cell death; Percentage of viable cells ([17]; 100 to 500 μM, after 5 days of exposure): drops dramatically
